Literature values as cited in patent publication US20190364946A1, “POWDERS AND TABLETS COMPRISING OMEGA-3 FATTY ACID DERIVATIVES AND METHODS FOR THEIR PRODUCTION” (OMEGATRI AS, priority 2016, published 2019).

Conditions: for Surfactants HLB: HLB of added surfactant or surfactant mixture; for HLB value: from commercial and scientific sources

| Surfactants HLB | Substance | HLB value |
| --- | --- | --- |
| 4.3 | Span 80 | – |
| 1.8 | Span 85 | – |
| – | sorbitan monostearate | 4.7 |
| – | sorbitan stearate | 4.7 |
